# Data as given in US20110223177A1, “TREATMENT OF FIBROTIC EYE DISORDERS” (UNIVERSITY OF EAST ANGLIA, priority 2008, published 2011).
# “Also recorded” adds a separate entry of the source.
# What was measured:
# [1] = test system: phosphorylated (active) myosin in FHL124 cells; experiment: Western blot detection of phosphorylated (active) myosin in response to TGF-β; assay type: cell-based, human; conditions: 15 μM ML7, 10 ng/ml TGF-β2, FHL124 cells
# Experimental: FIG. 2. Western blot detection of phosphorylated (active) myosin in response to 10 ng/ml TGF-β2 (Sigma, Poole, Dorset, UK). The data presented are pooled from 3 separate experiment. Each left hand bar of the bar pairs reports the result in the absence of ML7 (indicated as “−15 uM ML-7” in the key) and the right hand bar reports the result in the presence of 15 μM ML7 (indicated as “+15 uM ML-7” in the key). Beta actin was used as a control for equivalent protein amounts. * Indicates a significant difference from untreated control group (p<0.05; student's t-test).
# FHL-124 cells were washed with 1.5 ml PBS then lysed on ice in 0.5 mls Daubs lysis buffer; (50 mM HEPES pH 7.5, 150 mM NaCl, 1% Triton X-100, 1 mM EDTA, 10% glycerol, 10 mM sodium pyrophosphate, 2 mM sodium orthovanadate, 10 mM sodium fluoride, 250 mls ddH2O, 1 mM phenylmethylsulfonylfluoride and 10 μg/ml aprotinin. Lysates were pre-cleared by centrifuging at 13000 rpm at 4° C. for 10 min, and the protein content of the soluble fraction will be assayed by Bicinchoninic (BCA) protein assay. Equal amounts of protein per sample were loaded onto 10% SDS-PAGE gels for electrophoresis and transferred onto a polyvinylidene fluoride (PVDF) membrane with a BIO-RAD Trans-Blot semi-dry Transfer Cell. […] Gels were scanned using an HP scanjet 5470c and band intensity determined with Kodak 1D 3.5 software.
# [2] = test system: human lens epithelial cell line FHL124; experiment: FHL124 patch growth/contraction assay; assay type: cell-based; conditions: FHL 124 patches
# Experimental: FIG. 3. TGF-β-induced matrix contraction is suppressed by the MLCK inhibitor ML7. FHL 124 cells were seeded to form patches and maintained in the following conditions: EMEM (Eagle's minimal essential medium—standard culture medium) supplemented with 5% FCS (fetal calf serum—control)±15 μM ML7 (myosin light chain kinase inhibitor) (Calbiochem) for a 72 hour experimental period. In the graph, each left hand bar of the bar pairs reports the result in the absence of ML7 (indicated as “−15 uM ML-7” in the key) and the right hand bar reports the result in the presence of 15 μM ML7 (indicated as “[…]” in the key). Please note that numerical data can be obtained from these patches, which can be scrutinized by statistical analysis.
# FIG. 4. TGF-β-induced matrix contraction is promoted by the MLCP inhibitor tautomycin (Calbiochem). FHL 124 cells were seeded to form patches and maintained in the following conditions: EMEM (standard culture medium) supplemented with 5% FCS (control)±50 nM tautomycin (myosin phosphatase inhibitor); control+10 ng/ml TGFβ1±50 nM tautomycin; control+10 ng/ml TGFβ2±50 nM tautomycin for a 48 hour experimental period. […]
# FHL124 cells were seeded at 4 sites on a tissue culture dish at 5000 cells per site and maintained in EMEM supplemented with 5% FCS until confluent regions spanning approximately 5 mm developed. […] The cells were then washed in PBS and stained with Coomassie brilliant blue (a total protein dye) for 30 minutes to enable patches to be visualised and measured. […] Images of patches were captured on a CCD camera using GeneSnap and analysed using Scion image. After the patch area was measured, PBS medium was aspirated from the culture dish and replaced with 1 ml of 70% ethanol allowing Coomassie blue dye within the cells to be dissolved. […] A 200 μl sample of dye from each dish was placed in a clear plastic 96 well microtitre plate and the absorbance read at 550 nm using a plate reader. […]
# human lens capsular bags = experiment: Human lens capsular bag model; assay type: cell-based
# Experimental: FIG. 7. The effect of MLCK inhibition (using 15 μM ML7) on cell coverage of the previously cell-free posterior capsule of human capsular bags following 7 days of culture. The data represent Mean SEM (n=4). * Indicates a significant difference from control group. N.B. Control conditions are EMEM supplemented with 5% serum and 10 ng/ml TGFβ.
# FIG. 8. High (top row) and low power (bottom row) phase-contrast micrographs showing cells growing on the lens capsular bag treated with 10 ng/mL TGF-β in the presence or absence of ML7 (15 μM). Contraction (wrinkles) of the lens capsular bag is evident when treated with 10 ng/ml TGF-β alone.
# The model first described by Liu, C. S. C., et al., (Invest. Ophthalmol. Vis. Sci. (1996), 37, pages, 906-914) was employed. Following removal of corneo-scleral discs for transplantation purposes, human donor eyes from the East Anglian Eye Banks, UK (obtained with full ethical approval—COREC form approved 1 Dec. 2004. Ref04/Q0102/57) were used to perform a sham cataract operation. The resulting capsular bag was then dissected free of the zonules and secured on a sterile 35 mm polymethylmethacrylate (PMMA) petri dish. […] Coverage and matrix modification of the previously cell-free posterior capsule were captured on a daily basis using low-power phase microscopy and quantified using analysis software. […]
# [3] = test system: cells growing on the lens capsular bag; experiment: Immunocytochemical analysis of capsular bags at end point; assay type: cell-based, human; conditions: 15 μM ML7, 10 ng/ml TGF-β
# Experimental: FIG. 9. […] The fields of view represent 448×342 μm.
# Preparations were fixed for 30 minutes in 4% formaldehyde in PBS and permeabilised in PBS containing 0.5% Triton-X100, also for 30 minutes. Anti-CPI-17 and Anti-alpha smooth muscle actin was diluted 1:100 and applied for 60 min at 35° C., followed by washing. CPI-17 was visualised with ALEXA 488-conjugated secondary antibodies (Molecular Probes, Leiden, Netherlands). The F-actin cytoskeleton was stained with Texas Red-X-phalloidin and chromatin using DAPI (Molecular Probes, Leiden, Netherlands) for 10 min at room temperature. The stained preparations were again washed extensively, floated onto microscope slides and mounted in Hydromount mounting medium (National Diagnostics, Hull, UK). Images were viewed with a Zeiss epifluorescence microscope and Axiovision software.
# From the work on the cell line we chose to test ML7 i.e. the MLCK inhibitor. These studies were carried out on separate donors using a match paired format; one capsular bag was maintained in TGF-β and serum supplemented medium, while the other was maintained in TGF-β and serum supplemented medium plus 15 μM ML7. There is great consistency in cell behaviour from one eye to another from an individual donor; therefore the effects observed are due to the presence or absence of the inhibitor. […] This growth inhibition could be useful in the treatment of PCO as growth across the capsule is a critical component in the development of the condition, but this is a retardation of cell growth rather than ablation. […] In addition, we have carried out immunocytochemical analysis of the capsular bags at end point (FIG. 9).
smiles,measurement,setting,value
"O=S(=O)(c1cccc2c(I)cccc12)N1CCCNCC1 [ML7, (5-iodonaphthalene-1-sulfonyl)homopiperazine]",TGFβ-induced myosin activation (phosphorylated myosin),[1],significantly inhibited TGFβ-induced myosin activation
same,TGF-β-induced matrix contraction,"[2]; 15 μM ML7, 72 hour, EMEM + 5% FCS",significantly suppresses TGF-β-induced contraction; also recorded: significant reduction of TGF-β-induced contraction
same,TGF-β-induced matrix contraction (wrinkles) of the lens capsular bag,"human lens capsular bags; 15 μM ML7, 10 ng/ml TGF-β",does not give rise to wrinkle formation; also recorded: can suppress TGF-β-induced matrix contraction
same,cell coverage of the previously cell-free posterior capsule,"human lens capsular bags; 15 μM ML7, 7 days of culture, EMEM + 5% serum + 10 ng/ml TGFβ, control group 100% cover",80%
same,distribution of cell nuclei,[3],even distribution of cell nuclei
same,general organization of the cells,[3],cobblestone appearance
same,αSMA levels versus control bags,[3],similar
CO[C@H]([C@H](O)CC(=O)[C@@H](C)[C@@H](O)CC[C@@H](C)[C@@H]1O[C@]2(CC[C@@H](C)[C@H](CC[C@H](C)C(C)=O)O2)CC[C@@H]1C)[C@H](OC(=O)C[C@@H](O)C1=C(C)C(=O)OC1=O)C(C)C [tautomycin],TGF-β-induced matrix contraction,"[2]; 50 nM tautomycin, 10 ng/ml TGFβ1 or TGFβ2, 48 hour",speeded up the rate of contraction
same,TGF-β-induced matrix contraction,"[2]; 50 nM tautomycin, 10 ng/ml TGFβ1 or TGFβ2, 48 hour, listed as Tautomycin",significantly increases TGF-β-induced contraction
